Each structure is given as a SMILES string.

IC50 data for 30 molecules are collected here from patent publication US10654832B2, “3-(benzoimidazol-2-YL)-indazole inhibitors of the Wnt signaling pathway and therapeutic uses thereof” (Samumed, LLC, priority 2013, dated 2020).

The subject of the assay is Wnt activity (wnt-responsive SP5 promoter luciferase reporter in SW480 cells). Briefly: Wnt activity reporter assay (SP5 promoter-firefly luciferase in SW480 cells). The following applies: Homo sapiens; SW480 colon cancer cells with SP5 promoter luciferase reporter; 24 h after compound addition; half-log dilutions, three micromolar top concentration; normalized to DMSO; read-out: Wnt inhibition. In kind it is cell-based. The text has this:
The above synthesized compounds were screened using the assay procedure for Wnt activity described below.
Reporter cell lines were generated by stably transducing cells of cancer cell lines (e.g., colon cancer) with a lentiviral construct that include a wnt-responsive promoter driving expression of the firefly luciferase gene.
Lentiviral constructs were made in which the SP5 promoter, a promoter having eight TCF/LEF binding sites derived from the SP5 promoter, was linked upstream of the firefly luciferase gene. The lentiviral constructs included a hygromycin resistance gene as a selectable marker. The SP5 promoter construct was used to transduce SW480 cells, a colon cancer cell line having a mutated APC gene that generates a truncated APC protein, leading to de-regulated accumulation of β-catenin.
Cultured SW480 cells bearing a reporter construct were distributed at approximately 10,000 cells per well into 384 well multiwell plates. Compounds were then added to the wells in half-log dilutions using a three micromolar top concentration. A series of control wells for each cell type received only buffer and compound solvent. Twenty-four hours after the addition of compound, reporter activity for luciferases was assayed, for example, by addition of the BrightGlo luminescence reagent (Promega) and the Victor3 plate reader (Perkin Elmer). Readings were normalized to DMSO only treated cells, and normalized activities were then used for the IC50 calculations.
As for `O=C(Nc1cncc(-c2ccc3[nH]nc(-c4nc5c(-c6ccc(F)cc6)cccc5[nH]4)c3c2)c1)C1CCCCC1` [Compound 46, N-(5-(3-(4-(4-Fluorophenyl)-1H-benzo[d]imidazol-2-yl)-1H-indazol-5-yl)pyridin-3-yl)cyclohexanecarboxamide], the IC50 stood at 225 nM.
As for `Fc1ccc(-c2cccc3[nH]c(-c4n[nH]c5ccc(-c6cncc(CNCc7ccccc7)c6)cc45)nc23)cc1` [Compound 47, N-benzyl-1-(5-(3-(4-(4-Fluorophenyl)-1H-benzo[d]imidazol-2-yl)-1H-indazol-5-yl)pyridin-3-yl)methanamine], the IC50 was 450 nM.
The value for `CCNCc1cncc(-c2ccc3[nH]nc(-c4nc5c(-c6ccccc6F)cccc5[nH]4)c3c2)c1` [Compound 54, N-((5-(3-(4-(2-Fluorophenyl)-1H-benzo[d]imidazol-2-yl)-1H-indazol-5-yl)pyridin-3-yl)methyl)ethanamine] was 46 nM; that for `O=C(Nc1cncc(-c2ccc3[nH]nc(-c4nc5c(-c6ccccc6F)cccc5[nH]4)c3c2)c1)c1ccccc1` [Compound 59, N-(5-(3-(4-(2-Fluorophenyl)-1H-benzo[d]imidazol-2-yl)-1H-indazol-5-yl)pyridin-3-yl)benzamide] was 332 nM.
Take `Fc1ccccc1-c1cccc2[nH]c(-c3n[nH]c4ccc(-c5cncc(CN6CCCCC6)c5)cc34)nc12` [Compound 63, 3-(4-(2-Fluorophenyl)-1H-benzo[d]imidazol-2-yl)-5-(5-(piperidin-1-ylmethyl)pyridin-3-yl)-1H-indazole]: the IC50 amounted to 10 nM.
In the case of `CCCCC(=O)Nc1cncc(-c2ccc3[nH]nc(-c4nc5c(-c6ccccc6F)cccc5[nH]4)c3c2)c1` [Compound 66, N-(5-(3-(4-(2-Fluorophenyl)-1H-benzo[d]imidazol-2-yl)-1H-indazol-5-yl)pyridin-3-yl)pentanamide], the IC50 is no less than 4000 nM.
The value for `O=C(Nc1cncc(-c2ccc3[nH]nc(-c4nc5c(-c6ccccc6F)cccc5[nH]4)c3c2)c1)C1CCCC1` [Compound 69, N-(5-(3-(4-(2-Fluorophenyl)-1H-benzo[d]imidazol-2-yl)-1H-indazol-5-yl)pyridin-3-yl)cyclopentanecarboxamide] was 23 nM.
On to `Fc1ccccc1-c1cccc2[nH]c(-c3n[nH]c4ccc(-c5cncc(CNCC6CCCC6)c5)cc34)nc12` [Compound 72, 1-Cyclopentyl-N-((5-(3-(4-(2-fluorophenyl)-1H-benzo[d]imidazol-2-yl)-1H-indazol-5-yl)pyridin-3-yl)methyl)methanamine], for which the IC50 was determined as 1140 nM.
Consider `Nc1cncc(-c2ccc3[nH]nc(-c4nc5c(-c6cccnc6)cccc5[nH]4)c3c2)c1` [Compound 75, 5-(3-(4-(Pyridin-3-yl)-1H-benzo[d]imidazol-2-yl)-1H-indazol-5-yl)pyridin-3-amine], for which the IC50 is 6 nM.
On to `Cc1ccncc1-c1ccc2[nH]nc(-c3nc4c(-c5cccnc5)cccc4[nH]3)c2c1` [Compound 77, 5-(4-Methylpyridin-3-yl)-3-(4-(pyridin-3-yl)-1H-benzo[d]imidazol-2-yl)-1H-indazole], for which the IC50 was 63 nM.
Regarding `CN(C)c1cncc(-c2ccc3[nH]nc(-c4nc5c(-c6cccnc6)cccc5[nH]4)c3c2)c1` [Compound 79, N,N-Dimethyl-5-(3-(4-(pyridin-3-yl)-1H-benzo[d]imidazol-2-yl)-1H-indazol-5-yl)pyridin-3-amine], the IC50 amounted to 45 nM.
The value for `CC(C)Nc1cncc(-c2ccc3[nH]nc(-c4nc5c(-c6cccnc6)cccc5[nH]4)c3c2)c1` [Compound 84, N-Isopropyl-5-(3-(4-(pyridin-3-yl)-1H-benzo[d]imidazol-2-yl)-1H-indazol-5-yl)pyridin-3-amine] was 13 nM.
The value for `CC(C)(C)CC(=O)Nc1cncc(-c2ccc3[nH]nc(-c4nc5c(-c6cccnc6)cccc5[nH]4)c3c2)c1` [Compound 88, 3,3-Dimethyl-N-(5-(3-(4-(pyridin-3-yl)-1H-benzo[d]imidazol-2-yl)-1H-indazol-5-yl)pyridin-3-yl)butanamide] was 135 nM.
As to `CCCC(=O)Nc1cncc(-c2ccc3[nH]nc(-c4nc5c(-c6cccnc6)cccc5[nH]4)c3c2)c1` [Compound 89, N-(5-(3-(4-(Pyridin-3-yl)-1H-benzo[d]imidazol-2-yl)-1H-indazol-5-yl)pyridin-3-yl)butyramide], the IC50 amounted to 4 nM.
The value for `CCCCC(=O)Nc1cncc(-c2ccc3[nH]nc(-c4nc5c(-c6cccnc6)cccc5[nH]4)c3c2)c1` [Compound 90, N-(5-(3-(4-(Pyridin-3-yl)-1H-benzo[d]imidazol-2-yl)-1H-indazol-5-yl)pyridin-3-yl)pentanamide] was 11 nM.
The value for `O=C(Nc1cncc(-c2ccc3[nH]nc(-c4nc5c(-c6cccnc6)cccc5[nH]4)c3c2)c1)C1CCC1` [Compound 92, N-(5-(3-(4-(Pyridin-3-yl)-1H-benzo[d]imidazol-2-yl)-1H-indazol-5-yl)pyridin-3-yl)cyclobutanecarboxamide] was 8 nM; that for `O=C(Nc1cncc(-c2ccc3[nH]nc(-c4nc5c(-c6cccnc6)cccc5[nH]4)c3c2)c1)C1CCCCC1` [Compound 94, N-(5-(3-(4-(Pyridin-3-yl)-1H-benzo[d]imidazol-2-yl)-1H-indazol-5-yl)pyridin-3-yl)cyclohexanecarboxamide] was 121 nM; that for `c1ccc(CNCc2cncc(-c3ccc4[nH]nc(-c5nc6c(-c7cccnc7)cccc6[nH]5)c4c3)c2)cc1` [Compound 95, N-Benzyl-1-(5-(3-(4-(pyridin-3-yl)-1H-benzo[d]imidazol-2-yl)-1H-indazol-5-yl)pyridin-3-yl)methanamine] was 163 nM.
The value for `CC(C)(C)C(=O)Nc1cncc(-c2ccc3[nH]nc(-c4nc5c(-c6ccncc6)cccc5[nH]4)c3c2)c1` [Compound 104, N-(5-(3-(4-(Pyridin-4-yl)-1H-benzo[d]imidazol-2-yl)-1H-indazol-5-yl)pyridin-3-yl)pivalamide] was 65 nM; that for `O=C(Cc1ccccc1)Nc1cncc(-c2ccc3[nH]nc(-c4nc5c(-c6ccncc6)cccc5[nH]4)c3c2)c1` [Compound 106, 2-Phenyl-N-(5-(3-(4-(pyridin-4-yl)-1H-benzo[d]imidazol-2-yl)-1H-indazol-5-yl)pyridin-3-yl)acetamide] was 1930 nM; that for `CC(C)Nc1cncc(-c2ccc3[nH]nc(-c4nc5c(-c6ccncc6)cccc5[nH]4)c3c2)c1` [Compound 108, N-Isopropyl-5-(3-(4-(pyridin-4-yl)-1H-benzo[d]imidazol-2-yl)-1H-indazol-5-yl)pyridin-3-amine] was 16 nM.
In the case of `c1cc(-c2ccncc2)c2nc(-c3n[nH]c4ccc(-c5cncc(CN6CCCC6)c5)cc34)[nH]c2c1` [Compound 110, 3-(4-(Pyridin-4-yl)-1H-benzo[d]imidazol-2-yl)-5-(5-(pyrrolidin-1-ylmethyl)pyridin-3-yl)-1H-indazole], the IC50 came out at 205 nM.
Turning to `CCCCC(=O)Nc1cncc(-c2ccc3[nH]nc(-c4nc5c(-c6ccncc6)cccc5[nH]4)c3c2)c1` [Compound 114, N-(5-(3-(4-(Pyridin-4-yl)-1H-benzo[d]imidazol-2-yl)-1H-indazol-5-yl)pyridin-3-yl)pentanamide], the IC50 was 67 nM.
The value for `O=C(Nc1cncc(-c2ccc3[nH]nc(-c4nc5c(-c6ccncc6)cccc5[nH]4)c3c2)c1)C1CCC1` [Compound 116, N-(5-(3-(4-(Pyridin-4-yl)-1H-benzo[d]imidazol-2-yl)-1H-indazol-5-yl)pyridin-3-yl)cyclobutanecarboxamide] was 23 nM; that for `O=C(Nc1cncc(-c2ccc3[nH]nc(-c4nc5c(-c6ccncc6)cccc5[nH]4)c3c2)c1)C1CCCC1` [Compound 117, N-(5-(3-(4-(Pyridin-4-yl)-1H-benzo[d]imidazol-2-yl)-1H-indazol-5-yl)pyridin-3-yl)cyclopentanecarboxamide] was 54 nM.
Take `O=C(Nc1cncc(-c2ccc3[nH]nc(-c4nc5c(-c6ccncc6)cccc5[nH]4)c3c2)c1)C1CCCCC1` [Compound 118, N-(5-(3-(4-(Pyridin-4-yl)-1H-benzo[d]imidazol-2-yl)-1H-indazol-5-yl)pyridin-3-yl)cyclohexanecarboxamide]: the IC50 was found to be 1460 nM.
The value for `CC(C)CC(=O)Nc1cncc(-c2ccc3[nH]nc(-c4nc5c(-c6ccccn6)cccc5[nH]4)c3c2)c1` [Compound 122, 3-Methyl-N-(5-(3-(4-(pyridin-2-yl)-1H-benzo[d]imidazol-2-yl)-1H-indazol-5-yl)pyridin-3-yl)butanamide] was 11 nM.
For `Cc1ccncc1-c1ccc2[nH]nc(-c3nc4c(-c5ccccn5)cccc4[nH]3)c2c1` [Compound 125, 5-(4-Methylpyridin-3-yl)-3-(4-(pyridin-2-yl)-1H-benzo[d]imidazol-2-yl)-1H-indazole], the IC50 was found to be 54 nM.
With `CN(C)c1cncc(-c2ccc3[nH]nc(-c4nc5c(-c6ccccn6)cccc5[nH]4)c3c2)c1` [Compound 127, N,N-Dimethyl-5-(3-(4-(pyridin-2-yl)-1H-benzo[d]imidazol-2-yl)-1H-indazol-5-yl)pyridin-3-amine], the IC50 was 32 nM.
The value for `CC(C)C(=O)Nc1cncc(-c2ccc3[nH]nc(-c4nc5c(-c6ccccn6)cccc5[nH]4)c3c2)c1` [Compound 129, N-(5-(3-(4-(Pyridin-2-yl)-1H-benzo[d]imidazol-2-yl)-1H-indazol-5-yl)pyridin-3-yl)isobutyramide] was 21 nM.
